Measured values: PubChem BioAssay (NCI)
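Where inhibition never reached the appropriate level, the endpoint shown equals the highest concentration tested. Otherwise, values were interpolated linearly from a five-concentration, 48-hour dose response in 96-well plates. GI50 is the concentration that inhibits growth by half. At the TGI there is no net growth.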

System: P388/ADR leukemia
Experiment: NCI tumour cell line growth inhibition, 48 h

Structure (SMILES): Cc1cc([NH-])c([NH-])cc1C.[Cl][Pt+2][Cl]
- GI50: 2.36 µM
- TGI: 6.97 µM
